Values of other authors as cited in PMC6376154 (International Journal for Parasitology: Drugs and Drug …, 2019).
Like-named read-outs stand apart in the source and are kept apart here.

System: P. falciparum 3D7 asexual blood stage
Details: cited from earlier work
[1] = ChEMBL-NTD value per source (GNF, GSK, StJude), several values in a cell follow the order of the sources, read-out: CHEMBL EC50
[2] = MMV Malaria Box data sheet, ref MMV data sheets
[3] = MMV Malaria Box data sheet, ref MMV data sheets, read-out: EC50_nM
[4] = source GNF, ref ChEMBL_NTD, read-out: CHEMBL EC50
[5] = source GSK, ref ChEMBL_NTD, read-out: CHEMBL EC50
[6] = MMV Malaria Box data sheet (supplement mmc2.xls), ref MMV data sheet
[7] = value(s) per source (GSK, GNF, StJude), separated by semicolon, ref ChEMBL-NTD, read-out: CHEMBL EC50
[8] = MMV Malaria Box data sheet (supplement mmc2.xls), ref MMV data sheet, read-out: EC50_nM
[9] = MMV Malaria Box sheet, ref MMV data sheets
[10] = MMV Malaria Box sheet, ref MMV data sheets, read-out: EC50_nM

## CCCn1c(=N)c(C(=O)NC2CCCCC2)cc2c(=O)n3cccc(C)c3nc21 [MMV008829]
[1]
  EC50: 460 nM

## CCOc1cc2c(cc1OCC)C(c1cc(OC)c(O)cc1Cl)NCC2 (stereo not drawn) [MMV008956]
[2]
  percent_inh @ 5 uM: 98%
[3]
  EC50: 370 nM
[4]
  EC50: 362 nM
[5]
  EC50: 748 nM

## O=C(CCc1ccccc1)c1ccccc1OCC(O)CN1CCCCC1 (stereo not drawn) [MMV009015]
[1]
  EC50: 881 nM

## CCN(CC)c1ccc(NC(=O)c2cccs2)cc1 [MMV009060]
[6]
  percent_inh @ 5 uM: 88%
[7]
  EC50: 414 nM

## OC(CNC1CCCCC1)Cn1c2ccccc2c2ccccc21 (stereo not drawn) [MMV009063]
[2]
  percent_inh @ 5 uM: 93%
[3]
  EC50: 293 nM
[4]
  EC50: 483 nM
[5]
  EC50: 991 nM

## O=C1c2ccc3c4c(ccc(c24)C(=O)N1CCCCO)C(=O)N(CCCCO)C3=O [MMV009085]
[1]
  EC50: 354 nM

## CCN(CC)S(=O)(=O)c1ccc(-c2csc(Nc3ccc(C)c(C)c3)n2)cc1 [MMV009108]
[6]
  percent_inh @ 5 uM: 97%
[8]
  EC50: 641 nM
[7]
  EC50: 2100 nM

## CC1CCN(Cc2c(O)ccc3cc(-c4nc5ccccc5s4)c(=O)oc23)CC1 [MMV009127]
[9]
  percent_inh @ 5 uM: 91%
[10]
  EC50: 1130 nM
[4]
  EC50: 12500 nM

## Cc1cc(Nc2ccc3ccccc3c2)n2ncnc2n1 [MMV011099]
[3]
  EC50: 242 nM
[5]
  EC50: 173 nM

## Cc1cc(Nc2ccc(Cl)cc2)n2nc(C(F)(F)F)nc2n1 [MMV011256]
[3]
  EC50: 212 nM
[5]
  EC50: 117 nM

## Cc1cc(C)cc(Nc2cc(C)nc3nc(C(F)(F)F)nn23)c1 [MMV011259]
[3]
  EC50: 85.7 nM

## CC(C)(C)c1ccc(C2CC3=Nc4ccccc4N(C(=O)c4ccccc4Cl)C(c4ccc(F)cc4)C3=C(O)C2)cc1 (stereo not drawn) [MMV011436]
[1]
  EC50: 2630 nM

## COC(=O)c1ccc(C2C3=C(O)CC(c4ccc(F)cc4)CC3=Nc3ccccc3N2C(=O)c2ccccc2)cc1 (stereo not drawn) [MMV011438]
[1]
  EC50: 332 nM

## COc1ccc(C(=O)Nc2nonc2-c2ccc(OC)c(OC)c2)cc1Cl [MMV011567]
[2]
  percent_inh @ 5 uM: 92%
[3]
  EC50: 516 nM
[4]
  EC50: 1780 nM
[5]
  EC50: 675 nM

## CCOC(=O)C1CCN(C(=O)CN2C(=O)c3ccccc3C2c2c[nH]c3ccccc23)CC1 (stereo not drawn) [MMV011576]
[9]
  percent_inh @ 5 uM: 98%
[10]
  EC50: 1180 nM
[4]
  EC50: 519 nM

## Oc1ccccc1CN1CCN(C(c2ccccc2)c2ccccc2)CC1 [MMV011795]
[6]
  percent_inh @ 5 uM: 97%
[8]
  EC50: 611 nM

## Oc1ccc2ccccc2c1CNc1nc2ccccc2[nH]1 [MMV011832]
[1]
  EC50: 652 nM

## Nc1ccc(-c2nc3cc(Oc4ccc(Oc5ccc6[nH]c(-c7ccc(N)cc7)nc6c5)cc4)ccc3[nH]2)cc1 [MMV011895]
[1]
  EC50: 288 nM

## COc1cccc(Nc2nc(NCCO)c3ccccc3n2)c1 [MMV011944]
[8]
  EC50: 854 nM

## Cc1cc(NC(=O)c2ccc(-c3ccccc3)cc2)no1 [MMV018984]
[6]
  percent_inh @ 5 uM: 95%
[8]
  EC50: 693 nM
[7]
  EC50: 1020 nM

## COCCNCC(O)Cn1c2ccc(Cl)cc2c2cc(Cl)ccc21 (stereo not drawn) [MMV019017]
[8]
  EC50: 1010 nM
[7]
  EC50: 52 nM

## COc1cccc(-c2nn(C)c3sc(C(=O)NCCN4CCN(c5ccccc5F)CC4)cc23)c1 [MMV019064]
[6]
  percent_inh @ 5 uM: 91%
[8]
  EC50: 1300 nM
[7]
  EC50: 955 nM

## COc1ccccc1CNC(=O)CCn1c(=O)[nH]c2ccsc2c1=O [MMV019066]
[2]
  percent_inh @ 5 uM: 67%
[3]
  EC50: 140 nM
[5]
  EC50: 1040 nM

## CCN1CCN(c2cc(C)c3cc(NC(=O)c4ccc(OC)c(OC)c4)ccc3n2)CC1 [MMV019074]
[6]
  percent_inh @ 5 uM: 99%
[7]
  EC50: 1030 nM

## Cc1cccc(Nc2nc(N)c3ccccc3n2)c1 [MMV019110]
2 uM, MMV Malaria Box data sheet, ref MMV data sheets
  percent_inh @ 2 uM: 97%
[3]
  EC50: 400 nM
[5]
  EC50: 574 nM

## CCN(Cc1ccccc1)C1CCN(Cc2cc(Br)ccc2O)CC1 [MMV019127]
[6]
  percent_inh @ 5 uM: 97%
[8]
  EC50: 625 nM
[7]
  EC50: 823 nM

## COc1cccc(Nc2nc(N)c3ccccc3n2)c1 [MMV019199]
[1]
  EC50: 934 nM

## O=C(Nc1ccc(-c2nc3cc4ccccc4cc3[nH]2)cc1)c1cccc(Br)c1 [MMV019241]
[9]
  percent_inh @ 5 uM: 93%
[10]
  EC50: 450 nM
[5]
  EC50: 363 nM

## COc1ccc(-n2ccnc2SCC(=O)Nc2cc(C)ccc2C)c(OC)c1 [MMV019258]
[2]
  percent_inh @ 5 uM: 95%
[3]
  EC50: 170 nM
[5]
  EC50: 205 nM

## Cc1sc2ncnc(Sc3nc4ccccc4[nH]3)c2c1C [MMV019266]
[9]
  percent_inh @ 5 uM: 100%
[10]
  EC50: 614 nM
[5]
  EC50: 255 nM

## Cn1c(=O)c2cc(C(=O)NCCCN3CCCCCC3)sc2c2ccccc21 [MMV019313]
[6]
  percent_inh @ 5 uM: 97%
[8]
  EC50: 669 nM
[7]
  EC50: 689 nM

## CCC1(C)CC(CCNCc2ccccc2O)(c2ccc(C)cc2)CCO1 (stereo not drawn) [MMV019406]
[2]
  percent_inh @ 5 uM: 97%
[3]
  EC50: 142 nM
[5]
  EC50: 38.8 nM

## c1ccc2c(NCCCCCCNc3c4c(nc5ccccc35)CCCC4)c3c(nc2c1)CCCC3 [MMV019555]
[9]
  percent_inh @ 5 uM: 100%
[10]
  EC50: 376 nM
[5]
  EC50: 196 nM

## COc1ccc(N2CCN(C(CNC(=O)C3CCCCC3)c3ccc4c(c3)OCO4)CC2)cc1 (stereo not drawn) [MMV019662]
[6]
  percent_inh @ 5 uM: 97%
[8]
  EC50: 1110 nM
[7]
  EC50: 566 nM

## O=C(Nc1ccc(N2CCN(Cc3ccccc3)CC2)cc1)c1cccs1 [MMV019670]
[6]
  percent_inh @ 5 uM: 59%
[8]
  EC50: 1080 nM
[7]
  EC50: 769 nM

## COc1ccc(C2NCCc3c2[nH]c2ccccc32)cc1CN1CCN(c2ccc(F)cc2)CC1 (stereo not drawn) [MMV019690]
[9]
  percent_inh @ 5 uM: 97%
[10]
  EC50: 934 nM
[5]
  EC50: 776 nM

## O=C(Nc1ccc(N2CCCCC2)c(Cl)c1)c1ccc(Br)o1 [MMV019700]
[6]
  percent_inh @ 5 uM: 96%
[8]
  EC50: 735 nM
[7]
  EC50: 549 nM

## Cc1[nH]c(-c2ccc(F)cc2)cc1C(=O)NC1CCN(Cc2ccccc2)CC1 [MMV019738]
[6]
  percent_inh @ 5 uM: 99%
[8]
  EC50: 771 nM
[7]
  EC50: 1130 nM

## Cc1ccc(C)c(Cn2c(N3CCC(C(=O)NCc4cccs4)CC3)nc3ccccc32)c1 [MMV019741]
[9]
  percent_inh @ 5 uM: 97%
[10]
  EC50: 1330 nM
[5]
  EC50: 938 nM

## Cc1ccc(Cl)cc1N1CCN(CCCNC(=O)C2CCN(c3nc4ccccc4[nH]3)CC2)CC1 [MMV019746]
[6]
  percent_inh @ 5 uM: 97%
[8]
  EC50: 1330 nM
[7]
  EC50: 895 nM

## COc1ccc(C(=O)Nc2ccc3nc(N4CCCCC4)cc(C)c3c2)cc1OC [MMV019758]
[6]
  percent_inh @ 5 uM: 76%
[7]
  EC50: 994 nM

## COc1cccc(C(=O)Nc2ccc(-c3nc4ccccc4[nH]3)cc2)c1 [MMV019762]
[9]
  percent_inh @ 5 uM: 83%
[5]
  EC50: 802 nM

## Cc1cc(C)c2nc(N3CCC(C(=O)NCCCN4CCC(N5CCCCC5)CC4)CC3)sc2c1 [MMV019780]
[6]
  percent_inh @ 5 uM: 98%
[8]
  EC50: 697 nM
[7]
  EC50: 838 nM

## Fc1ccc2[nH]c3c(NCCCN4CCOCC4)ncnc3c2c1 [MMV019871]
[2]
  percent_inh @ 5 uM: 98%
[3]
  EC50: 345 nM
[5]
  EC50: 714 nM

## O=C(NC1CCN(Cc2ccccc2)CC1)c1cc(C(=O)NC2CCN(Cc3ccccc3)CC2)cc(C(=O)NC2CCN(Cc3ccccc3)CC2)c1 [MMV019881]
[1]
  EC50: 1040 nM

## Clc1cc(Br)ccc1-c1ccc(CNCC2CCNCC2)o1 [MMV019918]
[6]
  percent_inh @ 5 uM: 96%
[8]
  EC50: 800 nM
[7]
  EC50: 1510 nM

## O=C(NCCCN1CCC(N2CCCCC2)CC1)C1=Cc2cc(Br)ccc2OC1 [MMV019995]
[9]
  percent_inh @ 5 uM: 99%
[10]
  EC50: 563 nM
[5]
  EC50: 853 nM

## Cc1cc(N(C)C)nc(Nc2ccc(NC(=O)Nc3ccccc3)cc2)n1 [MMV020243]
[1]
  EC50: 134 nM

## O=C(NC1CCN(Cc2ccccc2)CC1)c1cc(-c2ccncc2)nc2ccc(Cl)cc12 [MMV020275]
[6]
  percent_inh @ 5 uM: 92%
[8]
  EC50: 1020 nM
[7]
  EC50: 920 nM

## COc1ccc(-c2cn3c(C(=O)Nc4ccccc4Cl)c(-c4ccccc4)c4c3n2CCCC4)cc1 [MMV020403]
[1]
  EC50: 792 nM

## CCn1c(CN2CCN(Cc3ccccc3)CC2)nc2cc(NC(=O)c3cccs3)ccc21 [MMV020439]
[2]
  percent_inh @ 5 uM: 97%
[3]
  EC50: 512 nM
[5]
  EC50: 402 nM

## O=C(NC1CCN(Cc2ccccc2)CC1)c1cc(-c2cccnc2)nc2ccc(Cl)cc12 [MMV020490]
[9]
  percent_inh @ 5 uM: 91%
[10]
  EC50: 1010 nM
[5]
  EC50: 759 nM

## CC1CN(C(=O)c2sc3ccccc3c2Cl)CC(C)O1 (stereo not drawn) [MMV020492]
[2]
  percent_inh @ 5 uM: 95%
[3]
  EC50: 25.5 nM
[5]
  EC50: 87.9 nM

## CNCCCNc1ccnc2cc(Cl)ccc12 [MMV020500]
[2]
  percent_inh @ 5 uM: 98%
[3]
  EC50: 82.2 nM
[5]
  EC50: 62.4 nM

## CN(C)CCCNCc1ccc(-c2ccc(F)c(Cl)c2)o1 [MMV020505]
[9]
  percent_inh @ 5 uM: 96%
[10]
  EC50: 876 nM
[5]
  EC50: 802 nM

## CCN1CCN(Cc2ccc(NC(=O)c3cc4ccc5cccnc5c4[nH]3)cc2)CC1 [MMV020548]
[2]
  percent_inh @ 5 uM: 70%
[3]
  EC50: 361 nM
[5]
  EC50: 848 nM

## CC1CCN(Cc2ccc(NC(=O)c3cc4ccc5cccnc5c4[nH]3)cc2)CC1 [MMV020549]
[2]
  percent_inh @ 5 uM: 97%
[3]
  EC50: 274 nM
[5]
  EC50: 779 nM

## O=C(Nc1ccc(CN2CCOCC2)cc1)c1ccc(-c2cc(Cl)ccc2Cl)o1 [MMV020651]
[9]
  percent_inh @ 5 uM: 97%
[10]
  EC50: 1940 nM
[5]
  EC50: 613 nM

## CCC(O)c1ccc(Br)cc1NC(=O)c1cccc(Cl)c1 (stereo not drawn) [MMV020654]
[6]
  percent_inh @ 5 uM: 97%
[8]
  EC50: 640 nM
[7]
  EC50: 1020 nM

## CC(=O)Nc1nnc(SCc2c(C)cc(C(C)(C)C)cc2C)s1 [MMV020700]
[6]
  percent_inh @ 5 uM: 96%
[8]
  EC50: 871 nM
[7]
  EC50: 704 nM

## COc1cc(-c2nc(-c3ccccc3)c(-c3ccccc3)[nH]2)cc(OC)c1O [MMV020750]
[1]
  EC50: 774 nM

## Oc1ccccc1CNCC12CC3CC(CC(C3)C1)C2 [MMV020788]
[2]
  percent_inh @ 5 uM: 96%
[3]
  EC50: 22.6 nM
[5]
  EC50: 279 nM
